Assay results: US9113629B2, “4-amino-6-(4-substituted-phenyl)-picolinates and 6-amino-2-(4-substituted-phenyl)-pyrimidine-4-carboxylates and their use as herbicides” (DOW AGROSCIENCES LLC, priority 2013, dated 2015)
Where two headings read alike, the source gives them in different places.

Tested on: test plant species in Direct Seeded Rice
Assay: Postemergence herbicidal activity in direct seeded rice (Table 13)
Assay type: in vivo
Conditions: for GR50 BRAPP / GR80 BRAPP / GR50 CYPSS / GR80 CYPSS / GR50 ECHSS / GR80 ECHSS / GR50 LEFSS / GR80 LEFSS / GR20 ORYSS / GR50 SCPJU / GR80 SCPJU / GR50 SEBEX / GR80 SEBEX: probit analysis; for GR20 ORYSS: ORYSS: Oryza sativa (crop); for pest or weed control at 35 g/ha / pest or weed control at 70 g/ha: post-emergence, 504 h; for pest or weed control at 35 g/ha: 35 g ai/ha; for pest or weed control at 70 g/ha: 70 g ai/ha
Description: Seeds or nutlets of the desired test plant species were planted in a soil matrix prepared by mixing a loam soil (43 percent silt, 19 percent clay, and 38 percent sand, with a pH of about 8.1 and an organic matter content of about 1.5 percent) and river sand in an 80 to 20 ratio. The soil matrix was contained in plastic pots with a surface area of 139.7 cm^2. When required to ensure good germination and healthy plants, a fungicide treatment and/or other chemical or physical treatment was applied. The plants were grown for 10-17 d in a greenhouse with an approximate 14-h photoperiod which was maintained at about 29° C. during the day and 26° C. during the night. Nutrients and water were added on a regular basis and supplemental lighting was provided with overhead metal halide 1000-Watt lamps as necessary. The plants were employed for testing when they reached the second or third true leaf stage. A weighed amount, determined by the highest rate to be tested, of each test compound was placed in 25 mL glass vials and dissolved in a volume of 97:3 v/v acetone-DMSO to obtain 12× stock solutions. […] The concentrated stock solutions were added to the spray solutions so that the final acetone and DMSO concentrations were 16.2% and 0.5%, respectively. Spray solutions were diluted to the appropriate final concentrations with the addition of 10 mL of an aqueous mixture of 1.5% (v/v) Agri-dex crop oil concentrate. […] Compound requirements are based upon a 12 mL application volume at a rate of 187 L/ha. Formulated compounds were applied to the plant material with an overhead Mandel track sprayer equipped with […] nozzles calibrated to deliver 187 L/ha over an application area of 0.503 square meters (m^2) at a spray height of 18 inches (43 cm) above average plant canopy height. Control plants were sprayed in the same manner with the solvent blank. The treated plants and control plants were placed in a greenhouse as described above and watered by sub-irrigation to prevent wash-off of the test compounds. After 20-22 days, the condition of the test plants, compared with that of the untreated plants, was determined visually and scored on a scale of 0 to 100 percent where 0 corresponds to no injury and 100 corresponds to complete kill. By applying the well-accepted probit analysis as described by J. Berkson in Journal of the American Statistical Society, 48, 565 (1953) and by D. Finney in “Probit Analysis” Cambridge University Press (1952), the above data can be used to calculate GR20, GR50, GR80 and GR90 values, which are defined as growth reduction factors that correspond to the effective dose of herbicide required to kill or control 20 percent, 50 percent, 80 percent or 90 percent, respectively, of a target plant.

[1] = BRAPP: broadleaf signalgrass, Brachiaria platyphylla
[2] = CYPSS: sedge (Cyperus difformis, esculentus, iria)
[3] = ECHSS: barnyardgrass (Echinochloa crus-galli), junglerice (Echinochloa colonum)
[4] = LEFSS: sprangletop (Leptochloa chinensis, Leptochloa dubia)
[5] = SCPJU: Japanese bulrush, Scirpus juncoides
[6] = SEBEX: hemp sesbania, Sesbania exaltata
[7] = BRAPP: broadleaf signalgrass, Brachiaria platyphylla, read-out: Visual Growth Reduction (%) 21 Days After Application BRAPP
[8] = CYPSS: sedge (Cyperus difformis, esculentus, iria), read-out: Visual Growth Reduction (%) 21 Days After Application CYPSS
[9] = ECHSS: barnyardgrass (Echinochloa crus-galli), junglerice (Echinochloa colonum), read-out: Visual Growth Reduction (%) 21 Days After Application ECHSS
[10] = LEFSS: sprangletop (Leptochloa chinensis, Leptochloa dubia), read-out: Visual Growth Reduction (%) 21 Days After Application LEFSS
[11] = ORYSS: Oryza sativa, read-out: Visual Growth Reduction (%) 21 Days After Application ORYSS
[12] = SCPJU: Japanese bulrush, Scirpus juncoides, read-out: Visual Growth Reduction (%) 21 Days After Application SCPJU
[13] = SEBEX: hemp sesbania, Sesbania exaltata, read-out: Visual Growth Reduction (%) 21 Days After Application SEBEX

Row | SMILES | GR50 BRAPP [1] | GR80 BRAPP [1] | GR50 CYPSS [2] | GR80 CYPSS [2] | GR50 ECHSS [3] | GR80 ECHSS [3] | GR50 LEFSS [4] | GR80 LEFSS [4] | GR20 ORYSS | GR50 SCPJU [5] | GR80 SCPJU [5] | GR50 SEBEX [6] | GR80 SEBEX [6] | pest or weed control at 35 g/ha [7] | pest or weed control at 70 g/ha [7] | pest or weed control at 35 g/ha [8] | pest or weed control at 70 g/ha [8] | pest or weed control at 35 g/ha [9] | pest or weed control at 70 g/ha [9] | pest or weed control at 35 g/ha [10] | further results
1 | COC(=O)c1nc(-c2ccc(I)cc2)c(Cl)c(N)c1Cl [Compound 96] | 19 g ai/ha | 58 g ai/ha | 3 g ai/ha | 6 g ai/ha | 29 g ai/ha | 84 g ai/ha | 27 g ai/ha | 58 g ai/ha | 130 g ai/ha | 1 g ai/ha | 1 g ai/ha | 1 g ai/ha | 1 g ai/ha | 60 to 74% | 85 to 94% | 95 to 100% | 95 to 100% | 45 to 59% | 85 to 94% | 85 to 94% | pest or weed control at 70 g/ha [10]: 75 to 84%; pest or weed control at 35 g/ha [11]: 0 to 29%; pest or weed control at 70 g/ha [11]: 0 to 29%; pest or weed control at 35 g/ha [12]: 95 to 100%; pest or weed control at 70 g/ha [12]: 95 to 100%; pest or weed control at 35 g/ha [13]: 95 to 100%; pest or weed control at 70 g/ha [13]: 95 to 100%
2 | Nc1cc(-c2ccc(I)cc2F)nc(C(=O)O)c1Cl [Compound 124] | 4 g ai/ha | 8 g ai/ha | 1 g ai/ha | 1 g ai/ha | 2 g ai/ha | 6 g ai/ha | 7 g ai/ha | 16 g ai/ha | 1 g ai/ha | 1 g ai/ha | 1 g ai/ha | 1 g ai/ha | 1 g ai/ha | 95 to 100% | 95 to 100% | 95 to 100% | 95 to 100% | 95 to 100% | 95 to 100% | 95 to 100% | pest or weed control at 70 g/ha [10]: 95 to 100%; pest or weed control at 35 g/ha [11]: 60 to 74%; pest or weed control at 70 g/ha [11]: 85 to 94%; pest or weed control at 35 g/ha [12]: 95 to 100%; pest or weed control at 70 g/ha [12]: 95 to 100%; pest or weed control at 35 g/ha [13]: 95 to 100%; pest or weed control at 70 g/ha [13]: 95 to 100%
3 | Nc1c(Cl)c(C(=O)O)nc(-c2ccc(Br)cc2)c1Cl [Compound 125] | 46 g ai/ha | >70 g ai/ha | 4 g ai/ha | 10 g ai/ha | 40 g ai/ha | >70 g ai/ha | 43 g ai/ha | >70 g ai/ha | 0 g ai/ha | 1 g ai/ha | 1 g ai/ha | 1 g ai/ha | 1 g ai/ha | 45 to 59% | 60 to 74% | 95 to 100% | 95 to 100% | 45 to 59% | 60 to 74% | 45 to 59% | pest or weed control at 70 g/ha [10]: 60 to 74%; pest or weed control at 35 g/ha [11]: 0 to 29%; pest or weed control at 70 g/ha [11]: 0 to 29%; pest or weed control at 35 g/ha [12]: 95 to 100%; pest or weed control at 70 g/ha [12]: 95 to 100%; pest or weed control at 35 g/ha [13]: 95 to 100%; pest or weed control at 70 g/ha [13]: 95 to 100%
4 | Nc1c(Cl)c(C(=O)O)nc(-c2ccc(C(F)(F)F)c(F)c2)c1Cl [Compound 146] | 8 g ai/ha | 29 g ai/ha | 1 g ai/ha | 1 g ai/ha | 17 g ai/ha | 32 g ai/ha | 44 g ai/ha | 87 g ai/ha | 18 g ai/ha | 1 g ai/ha | 1 g ai/ha | 3 g ai/ha | 4 g ai/ha | 60 to 74% | 95 to 100% | 95 to 100% | 95 to 100% | 85 to 94% | 85 to 94% | 0 to 29% | pest or weed control at 70 g/ha [10]: 75 to 84%; pest or weed control at 35 g/ha [11]: 30 to 44%; pest or weed control at 70 g/ha [11]: 60 to 74%; pest or weed control at 35 g/ha [12]: 95 to 100%; pest or weed control at 70 g/ha [12]: 95 to 100%; pest or weed control at 35 g/ha [13]: 95 to 100%; pest or weed control at 70 g/ha [13]: 95 to 100%
5 | COC(=O)c1nc(-c2ccc(I)cc2F)cc(N)c1Cl [Compound 159] | 3 g ai/ha | 8 g ai/ha | 2 g ai/ha | 5 g ai/ha | 2 g ai/ha | 4 g ai/ha | 12 g ai/ha | 19 g ai/ha | 12 g ai/ha | 1 g ai/ha | 1 g ai/ha | 1 g ai/ha | 1 g ai/ha | 95 to 100% | 95 to 100% | 95 to 100% | 95 to 100% | 95 to 100% | 95 to 100% | 95 to 100% | pest or weed control at 70 g/ha [10]: 95 to 100%; pest or weed control at 35 g/ha [11]: 45 to 59%; pest or weed control at 70 g/ha [11]: 60 to 74%; pest or weed control at 35 g/ha [12]: 95 to 100%; pest or weed control at 70 g/ha [12]: 95 to 100%; pest or weed control at 35 g/ha [13]: 95 to 100%; pest or weed control at 70 g/ha [13]: 95 to 100%
6 | Nc1c(Cl)c(C(=O)O)nc(-c2ccc(I)cc2)c1Cl [Compound 173] | 8 g ai/ha | 26 g ai/ha | 2 g ai/ha | 4 g ai/ha | 12 g ai/ha | 33 g ai/ha | 24 g ai/ha | 47 g ai/ha | 16 g ai/ha | 1 g ai/ha | 1 g ai/ha | 1 g ai/ha | 1 g ai/ha | 75 to 84% | 95 to 100% | 95 to 100% | 95 to 100% | 75 to 84% | 95 to 100% | 45 to 59% | pest or weed control at 70 g/ha [10]: 95 to 100%; pest or weed control at 35 g/ha [11]: 45 to 59%; pest or weed control at 70 g/ha [11]: 60 to 74%; pest or weed control at 35 g/ha [12]: 95 to 100%; pest or weed control at 70 g/ha [12]: 95 to 100%; pest or weed control at 35 g/ha [13]: 95 to 100%; pest or weed control at 70 g/ha [13]: 95 to 100%
